Source: article PMC8073230, “Development and Verification of a Precolumn Derivatization LC-MS/MS Method for the Pharmacokinetic Study of Houttuynine of Houttuynia Essential Oil” (Molecules, 2021)

Experiment: Pharmacokinetic study of Hou in rats after single administration of HEO (LC-MS/MS, non-compartmental model)
Assay type: in vivo, rat
Settings: for AUC(0–t) / AUC(0–∞) / C max / T 1/2 / T max / V z: Hou in rat plasma after single administration of HEO; for AUC(0–t) / AUC(0–∞) / C max / T 1/2 / T max / V z / MRT(0–t): n = 6; for MRT(0–t): Hou in rat plasma after HEO
Procedure: The pharmacokinetics of HEO administrated to rat via gavage and injection were evaluated based on the determination of Hou blood concentration by the established LC-MS/MS approach. Furthermore, the parameters of the pharmacokinetics were calculated by a non-compartmental model using the Drug and Statistics Software (DAS), version 3.2.8.
Twelve male SD rats (200 ± 30 g) were kept in an appropriate environment for three days before the start of the experiment. Before drug administration, the rats were fasted except for free water access for 12 h. All animals were randomly divided into two groups with six animals in each group. Blood samples (0.2 mL) were withdrawn at specific time intervals (0 h, 5 min, 10 min, 15 min, 30 min, 1 h, 2 h, 3 h, 4 h, 6 h, 8 h, 12 h, and 24 h) after administration in heparinized tubes. The samples were immediately centrifuged at 3000 rpm, and kept at −20 °C in a refrigerator.
Plasma samples (100 μL) were mixed with 100 μL of DNPH (2 mg/mL), 50 μL of IS (PTD, 200 µg/mL), and 150 μL acetonitrile (containing 2% HCl) with uniform mixing, followed by vigorous vortexing for 3 min to precipitate the protein. Then, all samples were shaken in a water bath oscillator for 15 min at 45 °C. The solutions were then centrifuged. The centrifugation step was repeated once, and plasma samples of Hou were obtained and subjected to LC-MS/MS analysis.
Pharmacokinetic parameters including AUC (0–t), AUC (0–∞), MRT (0–t), MRT (0–∞), CLz and so on, were calculated using the DAS (version 3.2.8, Chinese Pharmacological Association, Beijing, China). The Cmax was obtained from the concentration–time curve. The area under the plasma concentration–time curve from zero to the time of the last measurable sample AUC (0–t)), area under the plasma concentration–time curve from zero to infinity AUC (0−∞), mean residence time from zero to the time of the last measurable sample (MRT0−t), mean residence time from zero to the time of infinity (MRT0−∞), and CLz were calculated using the DAS.

## 3-oxo-dodecanal [Hou]
Hou after HEO, gavage (oral administration)
  F (absolute bioavailability): 7.08%
Hou after HEO, injection (reference route)
  F: 100%
gavage
  AUC(0–t): 2451.79 ± 300.01 µg·h/L
  AUC(0–∞): 2451.837 ± 432.74 µg·h/L
  C max: 222.48 ± 20.38 ng/mL
  T 1/2: 6.45 ± 0.94 h
  T max: 3.71 ± 1.07 h
  V z: 85.81 ± 5.74 L/kg
injection
  AUC(0–t): 32,693.2 ± 1320 μg/L × h
  AUC(0–∞): 34,630.466 ± 1436 μg/L × h
  C max: 2010 ± 350 ng/mL
  T 1/2: 5.987 ± 0.52 h
  T max: 0.033 ± 0.012 h
  V z: 5.611 ± 0.97 L/kg
Hou in rats after HEO, oral administration
  maximum plasma concentration (Cmax): 222.48 ng/mL
First MRT line (r8), gavage
  MRT(0–t): 8.914 ± 2.73 h
First MRT line (r8), injection
  MRT(0–t): 7.575 ± 1.21 h
Second MRT line (r9), gavage
  MRT(0–t): 11.594 ± 1.85 h
Second MRT line (r9), injection
  MRT(0–t): 9.153 ± 0.98 h
